Data: patent US9428539B2, “2β,3α,5α-trihydroxy-androst-6-one and preparation methods and use thereof” (Guangzhou Cellprotek Pharmaceutical Co., Ltd., priority 2013, dated 2016)

What was measured:
[1] = system: cerebellar granule neurons; assay: Glutamate-induced damage of cerebellar granule neurons (FDA staining); type: cell-based; settings: glutamate 100 μM, glycine 10 μM, Mg2+-free Locke buffer; 30 min pre-incubation; FDA staining after 24 h
Method: Cerebellar granule neurons cultured in vitro for 8 days were grouped. Treatment groups received MK801 or YC-10 at various concentrations, followed by incubation for 30 min. Following that, model group and all treatment groups were replaced with Mg^2+-free Locke buffer, and added with glutamate (100 μM final concentration), Glycine (10 μM final concentration) and drugs at respective concentrations. Cells were incubated at 37° C. for 30 minutes, replaced with original medium, incubated for further 24 h, followed by FDA staining.

LN18 cells = assay: MTT cell survival assay, LN18 cells; type: cell-based; settings: 250, 500, 1000 μM, 24 h post treatment, P<0.05 vs control
Method: (§1) Cell seeding and treatment: Logarithmic phase of LN18 and DBTRG-50MG cells were prepared to cell suspensions with complete medium. Cells were seeded into a 96-well plate at a density of 100 μl per well, 3×10^4/ml. 12 h post seeding, full cell adherence was observed. To the wells was added YC-10 to a final concentration of YC-10 being 250, 500, and 1000 μM, with each concentration group having 5 repeats.
(§2) Reaction of MTT with succinate dehydrogenase: At 24th h of culturing, 10 μl (5 mg/ml) of MTT was added to each well, followed by 4 h incubation. At this time, granulate violet formazan crystalline can be observed in live cells by microscopy.
(§3) Formazan particle dissolution: Supernatant was carefully discharged. To the wells was added DMSO at 100 μl/well to dissolve the crystalline. The mixture was vibrated on a mini oscillator for 5 min and measured for optical density (OD value) at 570 nm for each well by enzyme-linked immunometric assay.
(§4) Each group of experiments was repeated 3 times.
(§5) Survival (%)=OD value in treatment group/OD value in control group*100%.
(§6) All data was presented as mean±SD. SPSS 13.0 statistics package software was used. One-Way ANOVA and t-test were used to analyze the data. Sigmaplot software was used to give FIG. 1.

DBTRG-50MG cells = assay: MTT cell survival assay, DBTRG-50MG cells; type: cell-based; settings: 250, 500, 1000 μM, 24 h post treatment, P<0.05 vs control
Method: as §1, §2, §3, §4, §5, §6

KM mice = assay: Maximal tolerance dose test; type: in vivo
Method: YC-10 injections at concentration of 25 mg/mL were prepared with 40% hydroxypropyl cyclodextrin, and were injected through tail vein to 30 KM mice (half males and half females, weighted 18-22 g) at does of 0.1 mL/10 g.
The mice were continuously observed. All mice behaved and ate as usual, with bright coat color and fine fur. No abnormal secretions in mouth, eyes, nose, or ears were observed. Mice defecated normally. Mice weights were slighted increase. No mice died. Mice were sacrificed after 14 days, dissected and visual examined on important organs such as heart, liver, spleen, kidney, and gastrointestinal. No abnormal changes were observed.

[2] = system: cerebellar granule neurons; assay: Low potassium-induced death of cerebellar granule neurons (FDA staining); type: cell-based; settings: 50 μM, 5K (5 mM KCl) BME medium, 24 h
Method: Cerebellar granule neurons were cultured in vitro for 8 days. Treatment groups received YC-10 at various concentrations and incubated for 30 min. Following that, model group and all treatment groups were replaced with 5K (i.e., 5 mM KCl) BME medium (25K BME for control group), and added with YC-10 at respective concentrations. Cells were incubated at 37° C. for 24 h, followed by FDA staining.

retinal ganglion cell [3] = assay: Optic nerve clamping injury model, retinal ganglion cell death; type: in vivo; settings: rats; 20 mg/kg via tail vein 20 min before surgery, 2 h post operation, Day 2, Day 3; pathological examination at Day 7
Method: 10% chloral hydrate was used to anesthetize rats. YC-10 (20 mg/kg) or solvents were administered via tail vein 20 min before surgery. Eyes were subject to topical anesthesia. Conjunctiva was cut along limbus cornea with corneal scissors and intraocular microforceps. Lateral rectus was bluntly dissected to fully expose optic nerve. A cross action forceps was used to clamp the optic nerve for 5 seconds at 2 mm posterior to the eyeball, and then released. Antibiotic eye ointment was applied post operation to prevent infection. Drugs were administered at 2 h post operation, Day 2, and Day 3. Eyeballs were obtained for pathological examination at Day 7.

retinal ganglion cell [4] = assay: Eye high pressure and ischemia injury model, retinal ganglion cell death; type: in vivo; settings: rats; 20 mg/kg via tail vein before modeling, 2 h, Day 2, Day 3; 130 mmHg, 1 h ischemia; pathological examination at Day 7
Method: 10% chloral hydrate was used to anesthetize rats. Eyes were subject to topical anesthesia. Perfusion apparatus was placed 176 cm above rats' eyeballs (resulting in 130 mmHg intra-ocular pressure). 30 G ½ syringe needle was carefully inserted into anterior chamber. The eyeballs became white and starting time of ischemia was recorded. 1 h post ischemia, the syringe needle was quickly withdrawn and eyes were cared by antibiotic eyedrops. Rats were raised back to cage. Drugs were administered 20 before modeling for solvent group and YC-10 group (20 mg/kg). At 2 h, Day 2 and Day 3 post modeling, rats were treated with YC-10 via tail vein. At Day 7 post modeling, eyeballs were obtained for pathological examination.

## C[C@]12N[C@H](Cc3ccccc31)c1ccccc12 [MK801, reference compound]
[1]
  protection of cerebellar granule neurons from glutamate-induced damage: able to prevent cerebella granule neurons from glutamate-induced injury

## C[C@@]12CCCC1C1CC(=O)[C@@]3(O)C[C@H](O)[C@@H](O)C[C@]3(C)C1CC2 (stereo partly drawn) [YC-10, 2β,3α,5α-trihydroxy-androst-6-one]
LN18 cells
  cell survival rate (tumor cell killing): killed tumor cells in a dose-dependent manner
DBTRG-50MG cells
  cell survival rate (tumor cell killing): killed tumor cells in a dose-dependent manner
KM mice; 250 mg/kg tail vein injection in 40% hydroxypropyl cyclodextrin, observed 14 days
  toxicity to mouse (behaviour, weight, organ examination): nontoxic
KM mice; 250 mg/kg tail vein injection, 14 days
  mortality: No mice died
[1]
  protection of cerebellar granule neurons from glutamate-induced damage: effective in preventing glutamate-induced excitotoxin damage of cerebellar granule neurons in a dose-dependent manner
[2]
  protection of cerebellar granule neurons from low potassium-induced death: could prevent neuron from low potassium-induced death
Retinal ganglion cell [3]
  protection of retinal ganglion cell from optic nerve clamping injury-induced death: slow down or prevent from clamping injury-induced death
Retinal ganglion cell [4]
  protection of retinal ganglion cell from eye high pressure and ischemia-induced death: reduce or prevent from ischemia-induced death
